# Measured values: patent US11041000B2, “Peptide inhibitors of interleukin-23 receptor and their use to treat inflammatory diseases” (priority 2019, dated 2021)
# Bridge positions count the residues as written; N and C are the ends. Square brackets hold non-standard residues; d marks the D form. Peptide text beside a SMILES is read from it. Trp(7-Me) = Cc1cccc2c(C[C@H](N)C(=O)O)c[nH]c12; Trp(2-Me) = Cc1[nH]c2ccccc2c1C[C@H](N)C(=O)O; 2Nal = N[C@@H](Cc1ccc2ccccc2c1)C(=O)O; d2Nal = N[C@H](Cc1ccc2ccccc2c1)C(=O)O; AEF = NCCOc1ccc(C[C@H](N)C(=O)O)cc1; Cit = NC(=O)NCCC[C@H](N)C(=O)O; αMeL = CC(C)C[C@](C)(N)C(=O)O; Pen = CC(C)(S)[C@H](N)C(=O)O; hLeu = CC(C)CC[C@H](N)C(=O)O; αMeK = C[C@](N)(CCCCN)C(=O)O; Aib = CC(C)(N)C(=O)O; βAla = NCCC(=O)O; Sar = CNCC(=O)O
# Legend:
# [1] = Stability in cynomolgus monkey fecal homogenate; format: in vitro ADME; conditions: 20% fecal homogenate (supernatant), anaerobic, pH 6.8, 20% cynomolgus monkey fecal homogenate, 37° C., read-out: t½: Monkey Feces anaerobic (converted)
# Method: (§1) Centrifuged the homogenate at 2800×g for 15 min. The supernatant is taken out and used for incubations. […] The final test compound concentration was 20 μM.
# [2] = Stability in human fecal homogenate; format: in vitro ADME; conditions: 20% fecal homogenate (supernatant), pH 6.8, 20% human fecal homogenate, anaerobic, 37° C., read-out: t½: Human Feces anaerobic (converted)
# Method: as §1
# [3] = target: IL-23R-expressing DB cells (Homo sapiens, UniProt Q5VWK5); experiment: DB cells IL23R pSTAT3 cell assay (pStat3HTRF); format: cell-based; conditions: DB cells stimulated with IL-23 0.5 nM, 30 minutes, phospho-STAT3 in cell lysates; read-out: pStat3 HTRF
# Source text: Human ELISA indicates the IL23-IL23R competitive binding assay described below, Rat ELISA indicates the rat IL-23R competitive binding ELISA assay described below, and pStat3HTRF indicates the DB cells IL-23R pSTAT3 cell assay described below. The peptides depicted in Table E1 are cyclized via a disulfide bridge formed between two Pen residues in these peptides. The peptides depicted in Table E2 are cyclized via a thioether bond between the indicated amino acid residues. Table E2 provides an illustrative structure depicting thioether cyclization, which is indicated in the table by the term “cyclo,” with the cyclic region bracketed immediately following the term “cyclo.” For certain peptides, the residue Abu is present where indicated, whereas in other embodiments, e.g., those related to the non-cyclized form, the Abu may be referred to as a hSer(Cl) or homoSer residue. The petpides depicted in Table E3 are cyclized via a disulfide bridge formed between two Pen residues or a thioether bond between Abu and Cys.
# IL-23 plays a central role in supporting and maintaining Th17 differentiation in vivo. This process is thought to be mediated primarily through the Signal Transducer and Activator of Transcription 3 (STAT3), with phosphorylation of STAT3 (to yield pSTAT3) leading to upregulation of RORC and pro-inflammatory IL-17. This cell assay examines the levels of pSTAT3 in IL-23R-expressing DB cells when stimulated with IL-23 in the presence of test compounds. Serial dilutions of test peptides and IL-23 (Humanzyme #HZ-1261) at a final concentration of 0.5 nM, were added to each well in a 96 well tissue culture plate (Corning #CLS3894). DB cells (ATCC #CRL-2289), cultured in RPMI-1640 medium (Thermo Scientific #11875093) supplemented with 10% FBS, were added at 5×10E5 cells/well and incubated for 30 minutes at 37° C. in a 5% CO2 humidified incubator. Changes in phospho-STAT3 levels in the cell lysates were detected using the Cisbio HTRF pSTAT3 (Tyr705) Cellular Assay Kit (Cisbio #62AT3PEH), according to manufacturer's Two Plate Assay protocol.
# Stability in rat plasma = format: in vitro ADME; conditions: both sexes, SD rat plasma, EDTA, 37° C., read-out: t½: Rat Plasma EDTA (converted)
# [4] = Stability in simulated intestinal fluid (SIF); format: in vitro ADME; conditions: simulated intestinal fluid with pancreatin, pH 6.8, 37° C., matrix is 100 fold dilution of standard SIF concentration; for half-life at 20 μM: read-out: SIF t½ (converted); for SIF t½: 20 μM
# Chain of IL-23R-expressing DB cells (Q5VWK5 24-629 limits assumed): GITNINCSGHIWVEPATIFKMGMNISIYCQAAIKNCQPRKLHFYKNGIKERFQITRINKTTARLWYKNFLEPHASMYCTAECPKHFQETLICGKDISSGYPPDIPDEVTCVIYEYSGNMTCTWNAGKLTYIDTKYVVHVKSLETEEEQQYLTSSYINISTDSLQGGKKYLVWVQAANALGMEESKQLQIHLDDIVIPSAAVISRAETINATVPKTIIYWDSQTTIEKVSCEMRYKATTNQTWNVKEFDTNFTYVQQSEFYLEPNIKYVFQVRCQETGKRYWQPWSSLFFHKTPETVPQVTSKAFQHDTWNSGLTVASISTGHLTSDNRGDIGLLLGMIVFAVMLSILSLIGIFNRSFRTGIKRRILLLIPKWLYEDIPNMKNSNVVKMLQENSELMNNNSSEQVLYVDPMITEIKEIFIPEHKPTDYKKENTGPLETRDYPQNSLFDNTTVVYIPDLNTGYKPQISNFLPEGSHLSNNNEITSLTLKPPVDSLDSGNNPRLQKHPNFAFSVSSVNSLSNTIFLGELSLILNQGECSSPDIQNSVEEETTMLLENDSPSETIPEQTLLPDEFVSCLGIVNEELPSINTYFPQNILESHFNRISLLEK
half-life at 20 μM [2],half-life at 20 μM [1],half-life at 20 μM (Stability in rat plasma),half-life at 20 μM [4],SIF t½ [4],SMILES,half-life at 20 μM ([1]; cynomolgus monkey),IC50 [3]
> 24 h,> 24 h,> 24 h,23 h,,CC(=O)NCCCC[C@@H]1NC(=O)[C@H](Cc2c[nH]c3c(C)cccc23)NC(=O)[C@H]([C@@H](C)O)NC(=O)[C@H](C)NC(=O)[C@@H](NC(C)=O)C(C)(C)SSC(C)(C)[C@@H](C(=O)N[C@@H](Cc2ccc(OCCN)cc2)C(=O)N[C@@H](Cc2ccc3ccccc3c2)C(=O)N[C@@](C)(CCCCN)C(=O)N[C@@H](CCCCNC(C)=O)C(=O)N[C@@H](CC(N)=O)C(=O)N[C@H](CC(C)C)C(N)=O)NC1=O [compound 328] (Ac-[Pen]AT[Trp(7-Me)]K(Ac)[Pen][AEF][2Nal][αMeK]K(Ac)N[dL]-NH2; disulfide 1-6),,
> 24 h,> 24 h,> 24 h,10 h,,CC(=O)NCCCC[C@@H]1NC(=O)[C@H](Cc2c[nH]c3c(C)cccc23)NC(=O)[C@H]([C@@H](C)O)NC(=O)[C@H](CC(N)=O)NC(=O)[C@@H](NC(C)=O)C(C)(C)SSC(C)(C)[C@@H](C(=O)N[C@@H](Cc2ccc(OCCN)cc2)C(=O)N[C@@H](Cc2ccc3ccccc3c2)C(=O)N[C@@](C)(CCCCN)C(=O)N[C@@H](CCCCNC(=O)CC(C)C)C(=O)N[C@@H](CC(N)=O)C(=O)N[C@H](CC(C)C)C(N)=O)NC1=O [compound 356],,
> 24 h,> 24 h,> 24 h,13 h,,CC(=O)NCCCC[C@H](NC(=O)[C@](C)(CCCCN)NC(=O)[C@H](Cc1ccc2ccccc2c1)NC(=O)[C@H](Cc1ccc(OCCN)cc1)NC(=O)[C@H]1NC(=O)[C@H](CCCNC(N)=O)NC(=O)[C@H](Cc2c[nH]c3c(C)cccc23)NC(=O)[C@H]([C@@H](C)O)NC(=O)[C@H](CC(N)=O)NC(=O)[C@@H](NC(C)=O)C(C)(C)SSC1(C)C)C(=O)N[C@@H](CC(N)=O)C(=O)NC(C)(C)C(=O)N[C@H](Cc1ccc2ccccc2c1)C(N)=O [compound 348] (Ac-[Pen]NT[Trp(7-Me)][Cit][Pen][AEF][2Nal][αMeK]K(Ac)N[Aib][d2Nal]-NH2; disulfide 1-6),,
> 24 h,> 24 h,> 24 h,,24 h,CC(=O)NCCCC[C@@H]1NC(=O)[C@H](Cc2c[nH]c3c(C)cccc23)NC(=O)[C@H]([C@@H](C)O)NC(=O)[C@H](CCC(C)C)NC(=O)[C@@H](NC(C)=O)C(C)(C)SSC(C)(C)[C@@H](C(=O)N[C@@H](Cc2ccc(OCCN)cc2)C(=O)N[C@@H](Cc2ccc3ccccc3c2)C(=O)N[C@@](C)(CCCCN)C(=O)N[C@@H](CCCCNC(C)=O)C(=O)N[C@@H](CC(N)=O)C(=O)N[C@H](CC(C)C)C(N)=O)NC1=O [compound 337] (Ac-[Pen][hLeu]T[Trp(7-Me)]K(Ac)[Pen][AEF][2Nal][αMeK]K(Ac)N[dL]-NH2; disulfide 1-6),,
> 24 h,> 24 h,> 24 h,,24 h,CC(=O)NCCCC[C@@H]1NC(=O)[C@H](Cc2c[nH]c3c(C)cccc23)NC(=O)[C@H]([C@@H](C)O)NC(=O)[C@H](CC(N)=O)NC(=O)[C@@H](NC(C)=O)C(C)(C)SSC(C)(C)[C@@H](C(=O)N[C@@H](Cc2ccc(OCCN)cc2)C(=O)N[C@@H](Cc2c(C)[nH]c3ccccc23)C(=O)N[C@@](C)(CCCCN)C(=O)N[C@@H](CCCCNC(C)=O)C(=O)N[C@@H](CC(N)=O)C(=O)N[C@H](CCCCN)C(N)=O)NC1=O [compound 353] (Ac-[Pen]NT[Trp(7-Me)]K(Ac)[Pen][AEF][Trp(2-Me)][αMeK]K(Ac)N[dK]-NH2; disulfide 1-6),,
> 24 h,18 h,> 24 h,,24 h,CC(=O)NCCCC[C@H](NC(=O)[C@](C)(CCCCN)NC(=O)[C@H](Cc1ccc2ccccc2c1)NC(=O)[C@H](Cc1ccc(OCCN)cc1)NC(=O)[C@H]1NC(=O)[C@H](CCCNC(N)=O)NC(=O)[C@H](Cc2c[nH]c3c(C)cccc23)NC(=O)[C@H]([C@@H](C)O)NC(=O)[C@H](CC(N)=O)NC(=O)[C@@H](NC(C)=O)C(C)(C)SSC1(C)C)C(=O)N[C@@H](CC(N)=O)C(=O)N(C)CC(N)=O [compound 339] (Ac-[Pen]NT[Trp(7-Me)][Cit][Pen][AEF][2Nal][αMeK]K(Ac)N[Sar]-NH2; disulfide 1-6),,
> 24 h,> 24 h,> 24 h,17 h,,CC(=O)NCCCC[C@H](NC(=O)[C@](C)(CCCCN)NC(=O)[C@H](Cc1ccc2ccccc2c1)NC(=O)[C@H](Cc1ccc(OCCN)cc1)NC(=O)[C@H]1NC(=O)[C@H](CCCNC(N)=O)NC(=O)[C@H](Cc2c[nH]c3c(C)cccc23)NC(=O)[C@H]([C@@H](C)O)NC(=O)[C@H](CC(N)=O)NC(=O)[C@@H](NC(C)=O)C(C)(C)SSC1(C)C)C(=O)N[C@@H](CC(N)=O)C(=O)NC(C)(C)C(=O)NCC(N)=O [compound 341] (Ac-[Pen]NT[Trp(7-Me)][Cit][Pen][AEF][2Nal][αMeK]K(Ac)N[Aib]G-NH2; disulfide 1-6),,
> 24 h,> 24 h,> 24 h,12 h,,CC(=O)NCCCC[C@@H]1NC(=O)[C@H](Cc2c[nH]c3c(C)cccc23)NC(=O)[C@H]([C@@H](C)O)NC(=O)CNC(=O)[C@@H](NC(C)=O)C(C)(C)SSC(C)(C)[C@@H](C(=O)N[C@@H](Cc2ccc(OCCN)cc2)C(=O)N[C@@H](Cc2ccc3ccccc3c2)C(=O)N[C@@](C)(CCCCN)C(=O)N[C@@H](CCCCNC(C)=O)C(=O)N[C@@H](CC(N)=O)C(=O)N[C@H](CC(C)C)C(N)=O)NC1=O [compound 329] (Ac-[Pen]GT[Trp(7-Me)]K(Ac)[Pen][AEF][2Nal][αMeK]K(Ac)N[dL]-NH2; disulfide 1-6),,

SMILES,half-life at 20 μM [2],half-life at 20 μM [1],half-life at 20 μM (Stability in rat plasma),half-life at 20 μM [4],SIF t½ [4],half-life at 20 μM ([1]; cynomolgus monkey),IC50 [3]
CC(=O)NCCCC[C@H](NC(=O)[C@](C)(CC(C)C)NC(=O)[C@H](Cc1ccc2ccccc2c1)NC(=O)[C@H](Cc1ccc(OCCN)cc1)NC(=O)[C@H]1NC(=O)[C@H](CCCNC(N)=O)NC(=O)[C@H](Cc2c[nH]c3c(C)cccc23)NC(=O)[C@H]([C@@H](C)O)NC(=O)[C@H](CC(N)=O)NC(=O)[C@@H](NC(C)=O)C(C)(C)SSC1(C)C)C(=O)N[C@@H](CC(N)=O)C(=O)NCCC(N)=O [compound 227] (Ac-[Pen]NT[Trp(7-Me)][Cit][Pen][AEF][2Nal][αMeL]K(Ac)N[βAla]-NH2; disulfide 1-6),> 24 h,,,,,> 24 h,0.702 nM
CC(=O)NCCCC[C@H](NC(=O)[C@](C)(CCCCN)NC(=O)[C@H](Cc1ccc2ccccc2c1)NC(=O)[C@H](Cc1ccc(OCCN)cc1)NC(=O)[C@H]1NC(=O)[C@H](CCC(N)=O)NC(=O)[C@H](Cc2c[nH]c3c(C)cccc23)NC(=O)[C@H]([C@@H](C)O)NC(=O)[C@H](CC(N)=O)NC(=O)[C@@H](NC(C)=O)C(C)(C)SSC1(C)C)C(=O)N[C@@H](CC(N)=O)C(=O)NCCC(N)=O [compound 202],,10 h,,,,,1.1 nM
CC(=O)NCCCC[C@H](NC(=O)[C@](C)(CC(C)C)NC(=O)[C@H](Cc1ccc2ccccc2c1)NC(=O)[C@H](Cc1ccc(OCCN)cc1)NC(=O)[C@H]1NC(=O)[C@H](CCC(N)=O)NC(=O)[C@H](Cc2c[nH]c3c(C)cccc23)NC(=O)[C@H]([C@@H](C)O)NC(=O)[C@H](CC(N)=O)NC(=O)[C@@H](NC(C)=O)C(C)(C)SSC1(C)C)C(=O)N1CCC[C@H]1C(=O)NCCC(N)=O [compound 211],10 h,,,,,> 24 h,178 nM
CC(=O)NCCCC[C@H](NC(=O)[C@](C)(CCCCN)NC(=O)[C@H](Cc1ccc2ccccc2c1)NC(=O)[C@H](Cc1ccc(OCCN)cc1)NC(=O)[C@H]1NC(=O)[C@H](CCCCNC(=O)CC(C)C)NC(=O)[C@H](Cc2c[nH]c3c(C)cccc23)NC(=O)[C@H]([C@@H](C)O)NC(=O)[C@H](CC(N)=O)NC(=O)[C@@H](NC(C)=O)C(C)(C)SSC1(C)C)C(=O)N[C@@H](CC(N)=O)C(=O)N[C@H](CC(C)C)C(N)=O [compound 315],> 24 h,> 24 h,> 24 h,,24 h,,
